# From US20230391841A1, “MACROCYCLIC PEPTIDES” (Herantis Pharma OYJ, priority 2019, published 2023)
# Bridge positions count the residues as written; N and C are the ends. Peptide text beside a SMILES is read from it.
# Key:
# [1] = system: dopaminergic TH-positive neurons injured with MPP+; assay: Neuroprotective effect on dopaminergic TH-positive neurons injured with MPP+ (primary mesencephalic culture); format: cell-based, rat; details: MPP+ injured TH-positive neurons
# Procedure: Neuroprotective effects of compounds 1-26 (SEQ ID NO: 1-26) were tested in an in vitro model in which primary cultures of rat embryonic mesencephalic neurons were stressed with MPP+ , the active metabolite of neurotoxin 1-methyl-4-phenyl-1,2,3,6-tetrahydropyridine (MPTP). MPP+ kills dopaminergic (TH-positive) neurons via a variety of toxic mechanisms, including mitochondrial dysfunction, generation of peroxynitrite, oxidative stress, ER stress and induction of apoptosis.
# Culture of mesencephalic neurons. Rat dopaminergic neurons were cultured as described by Visanji et al., 2008. Briefly, the midbrains obtained from 15-day-old rat embryos (Janvier, France) were dissected, and the ventral portion of the mesencephalic flexure, a region of the developing brain rich in dopaminergic neurons, was used for the cell preparations. The midbrain cells were dissociated by trypsinization for 20 min at 37° C. (solution at a final concentration of 0.05% trypsin and 0.02% EDTA). The reaction was stopped by adding Dulbecco's modified Eagle's medium (DMEM) containing DNAase I grade II (0.5 mg/mL) and 10% of fetal calf serum (FCS). Cells were then mechanically dissociated by 3 passages through a 10 ml pipette. Cells were then centrifuged at 180×g for 10 min at +4° C. on a layer of BSA (3.5%) in L15 medium. The cell pellets were re-suspended in a defined culture serum-free medium consisting of Neurobasal (Invitrogen) supplemented with B27 (2%), L-glutamine (2 mM) and 2% of PS solution and 1Ong/ml of Brain-derived neurotrophic factor (BDNF) and 1 ng/mL of Glial-Derived Neurotrophic Factor (GDNF). Viable cells were counted in a Neubauer cytometer using the trypan blue exclusion test. The cells were seeded at a density of 40 000 cells/well in 96 well-plates (pre-coated with poly-L-lysine) and maintained in a humidified incubator at 37° C. in 5% CO2/95% air atmosphere. Half of the medium was changed every 2 days with fresh medium. On 96-wells plates, only 60 wells are used. To avoid any edge effect, the first and last lines and columns were not used for culture and were filled with sterile water.
# CDNF as well as linear and macrocyclic compounds […] (SEQ ID NOs: 1-26) were tested. On day 6 of culture, the compounds were dissolved in culture medium and then pre-is incubated with mesencephalic neurons for 4 hours before the MPP+ application. Four hours after the preincubation of the compounds, MPP+ was added to a final concentration of 4 pM, diluted in control medium still in presence of compounds for 48 h.
# 48 h after intoxication, the cells were fixed by a solution of 4% paraformaldehyde in PBS, pH 7.3 for 20 min at room temperature. The cells were washed twice in PBS, and then permeabilized and non-specific sites were blocked with a solution of PBS containing 0.1% of saponin and 1% FCS for 15 min at room temperature. Next, the cells were incubated with (a) a monoclonal antibody anti-Tyrosine Hydroxylase (TH) produced in mouse at dilution of 1:10000 and with (b) a polyclonal antibody anti-alpha-synuclein (α-syn) antibody produced in rabbit at dilution of 1:400 in PBS containing 1% FCS, 0.1% saponin, for 2 h at room temperature.
# 48 h after intoxication, the cell culture supernatant was removed, and the cells fixed by a solution of 4% paraformaldehyde in PBS, pH 7.3 for 20 min at room temperature. The cells were washed twice in PBS, and then permeabilized and non-specific sites were blocked with a solution of PBS containing 0.1% of saponin and 1% FCS for 15 min at room temperature. Then, the cells were incubated with a) a monoclonal Anti-Tyrosine Hydroxylase (TH) antibody produced in mouse at dilution of 1:10000 in PBS containing 1% FCS, 0.1% saponin, for 2 hours at room temperature, and b) a polyclonal anti-postsynaptic density protein-95 (PSD-95) antibody produced in rabbit at dilution of 1:200 in PBS containing 1% FCS, 0.1% saponin, for 2 h at room temperature. This antibody stains specifically synapses. […]
# [2] = system: rat hepatocytes; assay: In vitro metabolic stability in rat hepatocytes; format: in vitro ADME; details: 1 μM, 37° C., up to 60 min
# Procedure: The linear or macrocyclic compounds 1-14 and 23-26 (SEQ ID NOs: […]) were incubated in concentration 1 μM with pooled cryopreserved rat hepatocytes (Sprague-Dawley, male; 400 pl, 1.0 million viable cells/ml for compounds 1-8, 11-12 and 23-26 or 100 μl, 0.1 million viable cells/ml for compounds 9-10 and 13-14) for different time points (0, 10, 20, 40 or 60 min) at 37° C. The cell density and viability were determined by trypan blue exclusion method. The incubation was terminated by acetonitrile. The collected samples were centrifuged for 20 min at 2272×g and analyzed. The samples were analyzed is by UHPLC/PDA with high resolution mass spectrometry (QE-Orbitrap-MS on DDI mode) (compounds 1-8, 11-12 and 23-26) or HHPLC-ToF mass spectrometry (for compounds 9-and 13-14) to monitor disappearance of the compound. Verapramil 1 μM was used as a disappearance rate control. The analytical method was optimized by using the parent compounds for optimum chromatographic properties (peak shape and retention) and mass spectrometric ionization. The Ion chromatograms were extracted from the total ion chromatograms using calculated monoisotopic accurate masses with 5 mDa window. Disappearance was based on LC/MS peak areas, marking 0 min as 100%. The first-order rate constants k (min-1) of the metabolism were obtained from the slope of time versus logarithm (% of remaining compound) plot using Excel software. The in vitro half-life (t1/2) of study compound is defined as: t1/2In2/k. Calculated half-life is based on compound disappearance in rat liver hepatocytes.
# [3] = system: human hepatocytes; assay: In vitro metabolic stability in human hepatocytes; format: in vitro ADME; details: 1 μM, 37° C., up to 60 min
# Procedure: The linear or macrocyclic compounds 1-8, 11-14 and 23-26 (SEQ ID NOs: 1-8, 11-14 and 23-26) were incubated in concentration 1 μM with pooled cryopreserved human hepatocytes (mixed gender; 400 pl, 1.0 million viable cells/ml) for different time points (0, 20, 40 or 60 min) at 37° C. The cell density and viability were determined by trypan blue is exclusion method. The incubation was terminated by acetonitrile. The collected samples were centrifuged for 20 min at 2272×g and analyzed. The samples were analyzed by UPLC/PDA with high resolution mass spectrometry (QE-Orbitrap-MS on DDI mode) to monitor disappearance of the compound. Verapramil 1 μM was used as a disappearance rate control. The analytical method was optimized by using the parent compounds for optimum chromatographic properties (peak shape and retention) and mass spectrometric ionization. The Ion chromatograms were extracted from the total ion chromatograms using calculated monoisotopic accurate masses with 5 mDa window. Disappearance was based on LC/MS peak areas, marking 0 min as 100%. The first-order rate constants k (min-1) of the metabolism were obtained from the slope of time versus logarithm (% of remaining compound) plot using Excel software. The in vitro half-life (t1/2) of study compound is defined as: t1/2In2/k. Calculated half-life is based on compound disappearance in human liver hepatocytes.
compound,measurement,setting,value
"C[C@@H]1NC(=O)[C@@H]2CSSC[C@H](NC(=O)[C@H]([C@@H](C)O)NC(=O)[C@H](CCC(=O)O)NC(=O)CNC(=O)[C@H](Cc3c[nH]c4ccccc34)NC(=O)[C@H](CO)NC(=O)[C@H](CCCCN)NC(=O)[C@H](CCC(=O)O)NC1=O)C(=O)N[C@@H](CCCCN)C(=O)NCC(=O)NCC(=O)N2 [Compound 26, WGETCKGGCAEKS] (cyclo(AEKSWGETCKGGC); disulfide 9-13)",potency of macrocyclic peptide versus its linear counterpart,[1],comparable
same,stability in rat hepatocytes as compared to linear counterpart,[2],significantly improved stability
same,stability in human hepatocytes as compared to linear counterpart,[3],significantly improved stability
